Test results taken from ChEMBL document CHEMBL2375345, “New antiprotozoal agents: their synthesis and biological evaluations” (Bioorg Med Chem Lett, 2013).

Experiments:
[1] = Cytotoxicity against human MRC5 cells assessed as cell viability after 7 days by Alamar blue assay; assay type: cell-based
[2] = system: Trypanosoma brucei brucei; assay: Antiprotozoal activity against trypomastigote form of Trypanosoma brucei brucei 427 assessed as parasite growth inhibition; assay type: functional, organism-based
[3] = system: Trypanosoma brucei rhodesiense; assay: Antiprotozoal activity against trypomastigote form of Trypanosoma brucei rhodesiense STIB900 assessed as parasite growth inhibition after 72 hrs by Alamar blue assay; assay type: functional, organism-based; conditions: STIB900, 72 h
Leishmania infantum = assay: Antiprotozoal activity against amastigote form of Leishmania infantum MHOM/MA(BE)/67 infected in mouse peritoneal macrophages assessed as reduction of intracellular parasite burden after 5 days by Giemsa staining method; assay type: functional, organism-based; conditions: MHOM/MA(BE)/67, 120 h
[4] = Selectivity index, ratio of CC50 for human MRC5 cells to IC50 for amastigote form of Leishmania infantum MHOM/MA(BE)/67; assay type: functional
[5] = Lipophilicity, log P of the compound; assay type: physicochemical; conditions: octanol/water
[6] = Selectivity index, ratio of CC50 for human MRC5 cells to IC50 for epimastigote form of Trypanosoma cruzi Tulahuen 2; assay type: functional
[7] = Selectivity index, ratio of CC50 for human MRC5 cells to IC50 for trypomastigote form of Trypanosoma brucei brucei 427; assay type: functional
[8] = Selectivity index, ratio of CC50 for human MRC5 cells to IC50 for trypomastigote form of Trypanosoma brucei rhodesiense STIB900; assay type: functional
Trypanosoma cruzi [9] = assay: Antiprotozoal activity against epimastigote form of Trypanosoma cruzi Tulahuen 2 assessed as parasite growth inhibition measured at day 5; assay type: functional, organism-based; conditions: Tulahuen 2, 120 h
[10] = Cytotoxicity against mouse peritoneal macrophages; assay type: cell-based; conditions: peritoneal macrophage cell
Leishmania donovani = assay: Antiprotozoal activity against […] form of Leishmania donovani infected in primary macrophages assessed as reduction in intracellular parasite level after 90 mins by Giemsa staining method; assay type: functional, organism-based; conditions: 1.5 h
Trypanosoma cruzi [11] = assay: Antiprotozoal activity against trypomastigote form of Trypanosoma cruzi Colombian infected in BALB/c mouse assessed as decrease in parasitemia at 100 mg/kg, po administered for 1 week followed by weekly administration measured after 8 months; conditions: 168 h
Trypanosoma cruzi [12] = assay: Trypanocidal activity against Trypanosoma cruzi

IC50 [2]	IC50 [3]	IC50 (Leishmania infantum)	logP [5]	IC50 (Trypanosoma cruzi [9])	IC50 (Leishmania donovani)	IC50 (Trypanosoma cruzi [11])	Compound	CC50 at 168 h [1]	Ratio CC50/IC50 [4]	Ratio CC50/IC50 [6]	Ratio CC50/IC50 [7]	Ratio CC50/IC50 [8]	Activity [10]	IC50 (Trypanosoma cruzi [12])
8230 nM	3230 nM	8 µM	5.71	6920 nM			CC1(O)c2ccccc2-c2c1c(OCC(F)(F)F)nc1ccc(Br)cc21 (stereo not given)	19.8 µM	2.48	2.86	2.41	6.14		
32700 nM	8430 nM	25.4 µM	4.52	460 nM			COc1nc2ccc(Br)cc2cc1C(c1ccccc1)n1ccnc1 (stereo not given)	30.8 µM	1.21	67.02	0.943	3.65		
510 nM	250 nM	1.7 µM	6.84	1000 nM			CC(O)c1cc(F)ccc1Oc1nc2ccc(NC(=O)Nc3cccc([N+](=O)[O-])c3)cc2cc1Cc1ccccc1 (stereo not given)	2.2 µM	1.29	2.15	4.31	8.8	Non-toxic	
650 nM	250 nM	3.17 µM	6.72	2890 nM			COc1ccccc1NC(=O)Nc1ccc2nc(Oc3ccc(F)cc3C(C)O)c(Cc3ccccc3)cc2c1 (stereo not given)	6.21 µM		2.16	9.55		Non-toxic	
2040 nM	1640 nM	8.11 µM	7.56	5850 nM			COc1nc2ccc(Br)cc2c2c1C(C)(OCC(O)CN1CCN(C(c3ccccc3)c3ccccc3)CC1)c1ccccc1-2 (mixture of isomers)	17.6 µM	2.16	3	8.6	10.7		
					250 nM		C[C@@H]1[C@H](O)[C@@H](C)/C=C/C=C/C=C/C=C/C=C/C=C/C=C/[C@H](O[C@@H]2O[C@H](C)[C@@H](O)[C@H](N)[C@@H]2O)C[C@@H]2O[C@](O)(C[C@@H](O)C[C@@H](O)[C@H](O)CC[C@@H](O)C[C@@H](O)CC(=O)O[C@H]1C)C[C@H](O)[C@H]2C(=O)O [AMPHOTERICIN B]							
						3.66 µM	O=C(Cn1ccnc1[N+](=O)[O-])NCc1ccccc1 [BENZNIDAZOLE]							

Continued, compound first:

Compound	IC50 [2]	IC50 [3]	IC50 (Leishmania infantum)	logP [5]	IC50 (Trypanosoma cruzi [9])	IC50 (Leishmania donovani)	IC50 (Trypanosoma cruzi [11])	CC50 at 168 h [1]	Ratio CC50/IC50 [4]	Ratio CC50/IC50 [6]	Ratio CC50/IC50 [7]	Ratio CC50/IC50 [8]	Activity [10]	IC50 (Trypanosoma cruzi [12])
OC(c1ccccc1)c1c(C(F)(F)F)nc2ccc(Br)cc2c1Br (stereo not given)	7520 nM	5940 nM	8.11 µM	6.26	8070 nM			1.51 µM	0.19	0.19	0.2	0.25		
COc1nc2ccc(Br)cc2c2c1C(C)(OCC(O)CN)c1ccccc1-2 (stereo not given)	250 nM	250 nM	0.4 µM	3.46	470 nM			1.36 µM	3.4	2.89	5.44	5.44	Non-toxic	
COc1ccccc1NC(=O)NCC(O)COC1(C)c2ccccc2-c2c1c(OC)nc1ccc(Br)cc21 (stereo not given)	8230 nM	1880 nM	9.51 µM	4.84	2500 nM			5.31 µM	0.56	2.12	0.64	2.82		
O=C1c2ccccc2-c2c1c(Nc1ccncc1)nc1ccc(Br)cc21	560 nM	250 nM	5.08 µM	4.64	250 nM			0.75 µM	0.15	3	1.34	3	Non-toxic	
O=[N+]([O-])c1ccc2nc(Oc3ccc(F)cc3C(O)Cn3ccnc3)c(Cc3ccccc3)cc2c1 (stereo not given)	2180 nM	1810 nM	2.52 µM		250 nM			31.4 µM	12.47	125.76	14.42	17.37	Non-toxic	
COc1ccc(NC(=S)Nc2ccc3nc(Oc4ccc(F)cc4C(C)O)c(Cc4ccccc4)cc3c2)cc1 (stereo not given)	2090 nM	1310 nM	8.11 µM	7.86	5810 nM			42.3 µM	7.89	10.27	31.37	30.91		
COc1nc2ccc(Br)cc2c2c1C(C)(OCC(O)CN1CCN(Cc3ccccc3)CC1)c1ccccc1-2 (mixture of isomers)	2240 nM	1990 nM	9.51 µM	5.85	7250 nM			5.63 µM	0.59	0.77	2.51	2.83		
CC1CS(=O)(=O)CCN1/N=C/c1ccc([N+](=O)[O-])o1 (stereo not given) [NIFURTIMOX]														1800 nM
